Here are results for 46 compounds from PubChem BioAssay AID504702 (Southern Research Specialized Biocontainment Screening …, 2011).

Test [1] is described as follows: M. tuberculosis growth inhibition with meropenem, dose response, H37Rv, set 2 (AID 504702).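 Also: growth read by Alamar Blue after 7 days plus overnight incubation.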 Conditions: M. tuberculosis H37Rv with meropenem, growth inhibition.
Test [2] concerns M. tuberculosis H37Rv with meropenem, growth inhibition. The test is described as above. Conditions: for IC90: measured here: IC90 growth with meropenem.

Each structure is given as a SMILES string. Calls of active or inactive are those of the source. No rule for the calls is given here.

In general, IC50 refers to the concentration that gives 50% inhibition. In general, IC90 refers to the concentration at which the effect reaches the 90% level. As to `S=C(Nc1ccccc1)Nc1ccc(Cl)cn1`, the growth inhibition in test [1] (at 18.8 µM (top of the series)) is 1.73% (inactive). Further, in test [2], the IC50 was 6.64 µM and the IC90 is greater than 25 µM.
On to `Oc1ccc2[nH]ccc2c1`, for which the growth inhibition in test [1] (at 25 µM (top of the series)) is 3.81% (inactive).
On to `COC(=O)c1c(C)[nH]c2ccc(F)cc12`, for which the growth inhibition in test [1] (at 25 µM (top of the series)) is -3.53% (inactive).
The same measure, in the same setting: the result for `CCOc1ccc(NC(=O)COc2ccc(C)cc2C)cc1` reads -3.23% (inactive).
On the same count and under the same terms, the result for `CCOc1ccc2[nH]c(C)cc2c1` reads -0.67% (inactive); that for `Cc1ccc(OCC(=O)Nc2cccc3c(NC(=O)COc4ccc(C)cc4C)cccc23)c(C)c1`, -7.16% (inactive).
The same measure, in the same setting: in the case of `CCOc1ccc2[nH]ccc2c1` it was 2.77% (inactive).
On to `COc1ccc2nc(NC(=O)COc3ccccc3)sc2c1`, for which the growth inhibition in test [1] (at 25 µM (top of the series)) was -1.31% (inactive).
The same measure, in the same setting: the result for `Cc1ccc(OCC(=O)Nc2nnn(C)n2)c(C)c1` reads -3.74% (inactive).
Still for that read-out and setting: in the case of `COc1ccc2nc(NC(=O)COc3ccccc3C(C)C)sc2c1` it was -2.44% (inactive); in that of `O=C(COc1ccc2c3c(c(=O)oc2c1)CCC3)Nc1nc2ccccc2[nH]1`, -4.95% (inactive).
With `CCOc1ccc2nc(NC(=O)c3cnccn3)sc2c1`, the figures for the growth inhibition in test [1] (at 18.8 µM (top of the series)) and in test [1] (at 25 µM (top of the series)) were -0.94% (inactive) and 20.9% (inactive), respectively.
Consider `COc1ccc2nc(NC(=O)COc3ccc(C)cc3)sc2c1`, for which the growth inhibition in test [1] (at 25 µM (top of the series)) is -3.26% (inactive).
Consider `Cc1ccc(OCC(=O)Nc2nc3c(Cl)cccc3s2)cc1`, for which the growth inhibition in test [1] (at 25 µM (top of the series)) was -2.68% (inactive).
Same read-out and setting: the result for `Cc1cc(C)c(OCC(=O)Nc2nc3ccc(C)cc3s2)c(C)c1` reads -0.38% (inactive); that for `CC(=O)c1c(C)n(-c2cccc(Cl)c2)c2ccc(O)cc12`, -2.38% (inactive); that for `O=C(Nc1nc2ccccc2[nH]1)c1cc2cc(Br)ccc2o1`, -2.41% (inactive).
As for `CCCN1CC(O)=C(c2nc3ccccc3s2)C1=N`, the growth inhibition in test [1] (at 25 µM (top of the series)) was 1.43% (inactive).
For the compound `COC(=O)c1ccc2nc(NC(=O)COc3ccccc3)sc2c1`, the growth inhibition in test [1] (at 25 µM (top of the series)) was 15.1% (inactive).
Regarding `COc1ccc2nc(NC(=O)COc3ccc(Cl)cc3)sc2c1`, the growth inhibition in test [1] (at 25 µM (top of the series)) is 0.35% (inactive).
Regarding `CC(=O)Nc1ccc2nc(NC(=O)COc3ccccc3)sc2c1`, the growth inhibition in test [1] (at 25 µM (top of the series)) was -0.49% (inactive).
Turning to `O=C(Cc1ccccc1Cl)Nc1nc2ccccc2[nH]1`, the growth inhibition in test [1] (at 18.8 µM (top of the series)) was -1.22% (inactive). In addition, in test [2], the IC50 is 18.9 µM and the IC90 was greater than 25 µM.
Turning to `COc1ccc2nc(NC(=O)COc3c(C)cc(C)cc3C)sc2c1`, in test [1] (at 25 µM (top of the series)), the growth inhibition is -3.9% (inactive).
The same measure, in the same setting: in the case of `COc1ccccc1C(=O)N/C(N)=N/c1nc2ccccc2o1` it was 0.18% (inactive).
For `c1ccc(-c2cc(N3CCOCC3)nc3ccccc23)cc1`, the growth inhibition in test [1] (at 25 µM (top of the series)) is 6.06% (inactive). Besides, in test [2], the IC50 was 10 µM and the 90% effect concentration (IC90) is greater than 18.8 µM.
Consider `O=C(COc1cccc2ccccc12)Nc1nc2ccccc2s1`, for which the growth inhibition in test [1] (at 25 µM (top of the series)) is -6.75% (inactive).
For the compound `N/C(=N\c1nc2ccccc2o1)NC(=O)c1ccccc1`, the growth inhibition in test [1] (at 25 µM (top of the series)) was 2.3% (inactive).
In the case of `O=C(COc1ccccc1)Nc1nc2ccccc2s1`, the growth inhibition in test [1] (at 25 µM (top of the series)) was -1.01% (inactive).
The same measure, in the same setting: the result for `CC(=O)Nc1ccc2nc(NC(=O)Cc3ccccc3)sc2c1` reads -7.72% (inactive); that for `N/C(=N\c1nc2ccccc2o1)NC(=O)c1ccccc1F`, -5.8% (inactive); that for `CCOc1ccc2c(c1)c(C(C)=O)c(C)n2Cc1ccco1`, -2.87% (inactive).
Still for that read-out and setting: in the case of `CCOc1ccc2nc(NC(=O)COc3ccc(Cl)c(C)c3)sc2c1` it was -5.37% (inactive).
On the same count and under the same terms, in the case of `CCOc1ccc2nc(NC(=O)COc3ccc(OC)cc3)sc2c1` it was -8.22% (inactive).
In the case of `Cc1ccccc1OCC(=O)Nc1ccccc1-c1ccccc1`, the growth inhibition in test [1] (at 18.8 µM (top of the series)) is 23.6% (inactive). In test [2], the IC50 was 14.6 µM and the IC90 was greater than 25 µM.
Turning to `Cc1ccc2oc(/N=C(\N)NC(=O)c3ccccc3)nc2c1`, the growth inhibition in test [1] (at 25 µM (top of the series)) is 5.09% (inactive).
Same read-out and setting: the result for `CC(=O)c1c(C)n(-c2ccc(C)cc2)c2ccc(O)cc12` reads -1.38% (inactive); that for `CCOC(=O)c1c(C)[nH]c2ccccc12`, -5.69% (inactive).
`COc1cccc(-c2ccc(-c3noc(-c4ccccc4F)n3)c(OC)n2)c1`: the growth inhibition in test [1] (at 18.8 µM (top of the series)) is 5.58% (inactive). The same compound registered an IC90 in test [2] greater than 25 µM.
For `Cc1ccc(OC(C)C(=O)Nc2ncccn2)c(C)c1` (stereo not drawn), the growth inhibition in test [1] (at 25 µM (top of the series)) is 3.48% (inactive).
The same measure, in the same setting: in the case of `CC(C)(C)c1ccc(OCC(=O)Nc2nc3ccccc3s2)cc1` it was -9.97% (inactive).
Regarding `Cc1cc(C)c(OCC(=O)Nc2nc3ccccc3[nH]2)c(C)c1`, in test [1] (at 18.8 µM (top of the series)), the growth inhibition was 5.17% (inactive). In test [2], the half-inhibitory concentration (IC50) was 5.55 µM and the IC90 was greater than 25 µM.
For `N/C(=N\c1nc2ccccc2o1)NC(=O)C1CC1`, the growth inhibition in test [1] (at 25 µM (top of the series)) was 9.34% (inactive).
As for `O=C(COc1ccccc1Cl)Nc1nc2ccccc2s1`, the growth inhibition in test [1] (at 25 µM (top of the series)) was -4.37% (inactive).
Turning to `COC(=O)c1c(C)[nH]c2ccc(Cl)cc12`, the growth inhibition in test [1] (at 25 µM (top of the series)) was -8.83% (inactive).
Same read-out and setting: in the case of `N/C(=N\c1nc2ccccc2o1)NC(=O)COc1ccc2ccccc2c1` it was -2.85% (inactive); in that of `Cc1ccc(OCC(=O)Nc2cccc3ncccc23)c(C)c1`, 1.76% (inactive).
